Results on eight compounds are retold here after patent US8513227B2, “Inhibition of inflammatory cytokine production with tanshinones” (The Feinstein Institute for Medical Research, priority 2006, dated 2013).

Like-named read-outs stand apart in the source and are kept apart here. Bounds are passed on as bounds.

By IC50 is commonly meant the concentration needed to halve the response being measured.

For one assay, the system named is lethal sepsis. Description: Lethal sepsis induced by cecal ligation and puncture (CLP) in Balb/C mice. It is filed as in vivo. The note with it: 12 mg/kg, repeated at 24, 48, 72, 96 hours post onset; vehicle 50%; N=14, p>0.05. The procedure:
Animal models of endotoxemia and sepsis. This study was approved and performed in accordance with the guidelines for the care and use of laboratory animals at the Feinstein Institute for Medical Research, Manhasset, N.Y. Endotoxemia was induced in Balb/C mice (male, 7-8 weeks) by intraperitoneal injection of bacterial endotoxin (LPS, 15 mg/kg) as previously described (Chen et al. 2005; Wang et al. 1999; Wang et al. 2006). Sepsis was induced in male Balb/C mice (7-8 weeks, 20-25 g) or Sprague-Dawley rats (290-310 g) by cecal ligation and puncture (CLP) as previously described (Wang et al. 2006; Yang et al. 2002b). Herbal components were administered intraperitoneally into mice at indicated doses and time points, and mice were monitored for survival for up to two weeks. In parallel experiments, mice were euthanized to collect blood at 28 h (following two doses of herbal components at −0.5 and +24 h) after endotoxemia, and at 52 h (following two doses of herbal components at +24 and +48 h) after CLP.
TNF ELISA. The levels of TNF in the culture medium or serum were determined using commercial enzyme linked immunosorbent assay (ELISA) kits (Catalog no. MTA00, R & D Systems, Minneapolis, Minn.) with reference to standard curves of purified recombinant TNF at various dilutions as previously described (Chen et al. 2004; Rendon-Mitchell et al. 2003; Wang et al. 2006).
Nitric oxide assay. The levels of nitric oxide in the culture medium were determined indirectly by measuring NO^2− production with a colorimetric assay based on the Griess reaction (Rendon-Mitchell et al. 2003). NO2-concentrations were determined with reference to a standard curve generated with sodium nitrite at various dilutions.
HMGB1 western blotting analysis. The levels of HMGB1 in the culture medium or serum were determined by western blotting analysis as previously described (Chen et al. 2004; Rendon-Mitchell et al. 2003; Wang et al. 1999). The relative band intensity was quantified using NIH image 1.59 software to determine HMGB1 levels with reference to standard curves generated with purified HMGB1.
Tissue histology. At 48 hours after CLP, mice were euthanized in CO2 Chamber, and immediately perfused (transcardially) with phosphate buffer saline and 4% paraformaldehyde. Various tissues were harvested, sectioned, and stained with hematoxylin and eosin for morphology evaluation.

The next assay deals with phospholipase A2. The note with it: Kim et al. 2002; cited from earlier work.
Assay [1] deals with HMGB1. Description: LPS-induced HMGB1 release in RAW 264.7 macrophage cultures (western blot). The note with it: for IC50: Mus musculus, read-out: estimated IC50 for LPS-induced HMGB1 release. It is filed as cell-based, murine. The text has this:
Cell culture. […] Rendon-Mitchell et al. 2003). Murine macrophages were pre-cultured in RPMI 1640 medium (Gibco BRL, Grand Island, N.Y.) supplemented with 10% fetal bovine serum (FBS) and 2 mmol/L glutamine. Human peripheral blood mononuclear cells (HuPBMCs) were isolated from the blood of healthy donors (Long Island Blood Bank, Melville, N.Y.) by density gradient centrifugation through Ficoll (Ficoll-Paque PLUS, Pharmacia, Piscataway, N.J.), and cultured in RPMI 1640 supplemented with 10% heat-inactivated human serum/0.2 mM L-glutamine as previously described (Rendon-Mitchell et al. 2003). LPS stimulation. Adherent macrophages or monocytes were gently washed with, and cultured in, serum-free OPTI-MEM I medium two hours before stimulation with bacterial endotoxin (lipopolysaccharide, LPS, E. coli 0111:B4, Sigma-Aldrich). […] Rendon-Mitchell et al. 2003; Wang et al. 1999). HMGB1 western blotting analysis. The levels of HMGB1 in the culture medium or serum were determined by western blotting analysis as previously described (Chen et al. 2004; Rendon-Mitchell et al. 2003; Wang et al. 1999). The relative band intensity was quantified using NIH image 1.59 software to determine HMGB1 levels with reference to standard curves generated with purified HMGB1.

For a further assay, the target named is acetylcholinesterase (Homo sapiens, UniProt P22303). The note with it: literature; cited from earlier work.
The test system of assay [2] is HMGB1. The note with it: Wang et al. 2006; cited from earlier work.
Another assay has as its system nitric oxide. The note with it: Wang et al. 2006; cited from earlier work.
The subject of another assay is TNF. As to the kind of experiment: LPS-mediated TNF secretion in RAW 264.7 macrophages (ELISA). Format: cell-based, murine. The note with it: concentrations up to 10 μM, FIG. 5C. The procedure:
Cell culture. Murine macrophage-like RAW 264.7 cells were obtained from the American Type Culture Collection (ATCC, Rockville, Md.), and primary peritoneal macrophages were isolated from Balb/C mice (male, 7-8 weeks, 20-25 grams) at 2-3 days after intraperitoneal injection of 2 ml thioglycollate broth (4%) as previously described (Chen et al. 2004; Rendon-Mitchell et al. 2003). Murine macrophages were pre-cultured in RPMI 1640 medium (Gibco BRL, Grand Island, N.Y.) supplemented with 10% fetal bovine serum (FBS) and 2 mmol/L glutamine. Human peripheral blood mononuclear cells (HuPBMCs) were isolated from the blood of healthy donors (Long Island Blood Bank, Melville, N.Y.) by density gradient centrifugation through Ficoll (Ficoll-Paque PLUS, Pharmacia, Piscataway, N.J.), and cultured in RPMI 1640 supplemented with 10% heat-inactivated human serum/0.2 mM L-glutamine as previously described (Rendon-Mitchell et al. 2003). LPS stimulation. […] The levels of TNF in the culture medium or serum were determined using commercial enzyme linked immunosorbent assay (ELISA) kits (Catalog no. MTA00, R & D Systems, Minneapolis, Minn.) with reference to standard curves of purified recombinant TNF at various dilutions as previously described (Chen et al. 2004; Rendon-Mitchell et al. 2003; Wang et al. 2006).
(In general: ELISA stands for enzyme-linked immunosorbent assay.)

The mark [3] stands for this setting: RAW264.7, RAW 264.7 cells, 16 h after LPS, western blot, estimated.
Where [4] appears, read: superpharmacological concentrations (1-25 μM), data not shown.

acetylcholinesterase, sequence (P22303 32-614, species assumed): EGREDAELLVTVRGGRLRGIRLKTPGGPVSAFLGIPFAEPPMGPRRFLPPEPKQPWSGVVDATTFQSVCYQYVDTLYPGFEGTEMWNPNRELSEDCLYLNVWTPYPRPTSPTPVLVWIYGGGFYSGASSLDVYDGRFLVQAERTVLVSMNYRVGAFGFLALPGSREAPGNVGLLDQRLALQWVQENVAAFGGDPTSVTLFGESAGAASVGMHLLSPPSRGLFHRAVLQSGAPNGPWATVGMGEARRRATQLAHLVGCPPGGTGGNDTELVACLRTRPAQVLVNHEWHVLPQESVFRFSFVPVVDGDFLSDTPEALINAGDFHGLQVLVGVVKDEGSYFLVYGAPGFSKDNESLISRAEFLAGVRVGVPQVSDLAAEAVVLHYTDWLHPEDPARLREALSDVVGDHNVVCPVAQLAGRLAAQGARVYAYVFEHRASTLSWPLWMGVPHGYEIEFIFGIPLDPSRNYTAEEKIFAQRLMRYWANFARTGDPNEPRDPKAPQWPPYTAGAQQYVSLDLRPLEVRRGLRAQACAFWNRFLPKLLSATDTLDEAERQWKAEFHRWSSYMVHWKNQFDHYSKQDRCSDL

As for `Cc1coc2c1C(=O)C(=O)c1c-2ccc2c(C)cccc12` [tanshinone I], the “survival rate, lethal sepsis” value with lethal sepsis is given as 57%. In addition, the “inhibition of phospholipase A2” value in the assay on phospholipase A2 is listed as “can inhibit”. Moreover, the IC50 in the assay with HMGB1 [1] (setting [3]) was under 25 µM. Take `CC(C)Cc1ccc(C(C)C(=O)O)cc1` (centres unmarked) [ibuprofen]: the “effect on LPS-induced HMGB1 release” value in the assay on HMGB1 [1] (setting [4]) was “None of the tested cyclooxygenase inhibitors (e.g., aspirin, ibuprofen, and indomethacin) significantly affected”. Take `CC1COC2=C1C(=O)C(=O)c1c2ccc2c1CCCC2(C)C` (centres unmarked) [cryptotanshinone, 1,6,6-Trimethyl-1,2,6,7,8,9-hexahydro-phenanthro[1,2-b]furan-10,11-dione]: on acetylcholinesterase, the inhibition of acetylcholinesterase result is on record as “can inhibit”. Besides, the IC50 with HMGB1 [1] (RAW264.7, 16 h) was under 25 µM.

Regarding `COc1ccc2c(c1)c(CC(=O)O)c(C)n2C(=O)c1ccc(Cl)cc1` [indomethacin], in the assay with HMGB1 [1] (setting [4]), the “effect on LPS-induced HMGB1 release” value was “None of the tested cyclooxygenase inhibitors (e.g., aspirin, ibuprofen, and indomethacin) significantly affected”. `COc1cc(/C=C/C(=O)O)ccc1O` [ferulic acid]: in the assay with HMGB1 [2], the “effect on LPS-induced HMGB1 release” value is listed as “failed to affect”. Also, in the assay with nitric oxide, the “effect on LPS-induced nitric oxide production” value is reported as “effectively attenuated”. For `CC(=O)Oc1ccccc1C(=O)O` [aspirin], the “effect on LPS-induced HMGB1 release” value with HMGB1 [1] (setting [4]) is “None of the tested cyclooxygenase inhibitors (e.g., aspirin, ibuprofen, and indomethacin) significantly affected”. Take `C[C@]12CCC(=O)C=C1CC[C@@H]1[C@@H]2C(=O)C[C@@]2(C)[C@H]1CC[C@]2(O)C(=O)CO` [cortisone]: in the assay with TNF, the “effect on LPS-mediated TNF secretion” value was “effectively attenuated”. In the assay with HMGB1 [1] (concentrations up to 10 μM, FIG. 5B), the “effect on LPS-induced HMGB1 release” value is given as “failed to reduce”.

`Cc1coc2c1C(=O)C(=O)c1c-2ccc2c1CCCC2(C)C` [tanshinone IIA, 1,6,6-Trimethyl-6,7,8,9-tetrahydro-phenanthro[1,2-b]furan-10,11-dione]: in the assay with lethal sepsis, the “survival rate, lethal sepsis” value was found to be 61%. In addition, in the assay on HMGB1 [1] (setting [3]), the IC50 is under 25 µM.
